Legend:
[1] = target: T1, HIV-1 integrase (wild-type IN) (Human immunodeficiency virus type 1 group M subtype B, UniProt P12497); assay: HIV-1 integrase strand transfer assay (32P-labeled 21-mer, gel); type: biochemical
From the text: (§1) The oligonucleotides 21 top, 5′-[…]-3′ (SEQ ID NO:1) and 21 bot, 5′-[…]-3′ (SEQ ID NO:2) were purchased from Norris Cancer Center Core Facility (University of Southern California) and purified by UV shadowing on polyacrylamide gel. To analyze the extent of 3′-processing and strand transfer using 5′-end labeled substrates, 21 top was 5′-end labeled using T4 polynucleotide kinase (Epicentre, Madison, Wis.) and γ [^32P]-ATP (Amersham Biosciences or ICN). The kinase was heat-inactivated and 21 bot was added in 1.5-molar excess. The mixture was heated at 95° C., allowed to cool slowly to room temperature, and run through a spin 25 mini-column (USA Scientific) to separate annealed double-stranded oligonucleotide from unincorporated material.
(§2) To determine the extent of 3′-processing and strand transfer, wild-type IN was preincubated at a final concentration of 200 nM with the inhibitor in reaction buffer (50 mM NaCl, 1 mM HEPES, pH 7.5, 50 μM EDTA, 50 μM dithiothreitol, 10% glycerol (w/v), 7.5 mM MnCl2, 0.1 mg/ml bovine serum albumin, 10 mM 2-mercaptoethanol, 10% dimethyl sulfoxide, and 25 mM MOPS, pH 7.2) at 30° C. for 30 min. Then, 20 nM of the 5′-end ^32P-labeled linear oligonucleotide substrate was added, and incubation was continued for an additional one hour. Reactions were quenched by the addition of an equal volume (16 μl) of loading dye (98% deionized formamide, 10 mM EDTA, 0.025% xylene cyanol and 0.025% bromophenol blue). An aliquot (5 μl) was electrophoresed on a denaturing 20% polyacrylamide gel (0.09 M tris-borate pH 8.3, 2 mM EDTA, 20% acrylamide, 8M urea).
(§3) Gels were dried, exposed in a PhosphorImager cassette, and analyzed using a Typhoon 8610 Variable Mode Imager (Amersham Biosciences) and quantitated using ImageQuant 5.2. Percent inhibition (% I) was calculated using the following equation: %I=100×[1−(D−C)/(N−C)]
(§4) where C, N, and D are the fractions of 21-mer substrate converted to 19-mer (3′-processing product) or strand transfer products for DNA alone, DNA plus IN, and IN plus drug, respectively. The IC50 values were determined by plotting the logarithm of drug concentration versus percent inhibition to obtain concentration that produced 50% inhibition. […]

[2] = target: T1, HIV-1 integrase (wild-type IN); assay: HIV-1 integrase 3′-processing assay (32P-labeled 21-mer, gel); type: biochemical
From the text: as §1, §2, §3, §4

[3] = wild-type IN 200 nM, 7.5 mM MnCl2, read-out: Inhibition of IN Catalytic Activities IC50 (μM) Strand Transfer
[4] = wild-type IN 200 nM, 7.5 mM MnCl2, read-out: Inhibition of IN Catalytic Activities IC50 (μM) 3′-processing
[5] = unit inferred, read-out: IN inhibition activity Strand transfer
[6] = unit inferred, read-out: IN inhibition activity 3′-processing
[7] = unit inferred, read-out: HIV-1 IN Inhibitory Activities Strand transfer
[8] = unit inferred, read-out: HIV-1 IN Inhibitory Activities 3′-processing

Structure (SMILES) | IC50 [1, 3] | IC50 [2, 4] | IC50 [1, 5] | IC50 [2, 6] | also measured
Cc1ccc2ccc(C(Nc3ccccn3)c3ccc(F)cc3)c(O)c2n1 (stereo not drawn) [RT30] | > 100 µM | > 100 µM |  |  | 
Oc1cccc2ccc(/C=C/c3ccc(-c4cccc(Cl)c4)o3)nc12 [RT29] | 70 µM | 30 µM |  |  | 
O=C(CSc1nnc(-c2ccccc2)n1Cc1ccccc1)NNC(=O)c1ccccc1O [AS90] |  |  | 9 ± 7 µM | 21 ± 6 µM | 
COc1ccc(C2C(C(=O)c3ccc(Br)cc3)=C(O)C(=O)N2c2cc(C(C)(C)C)on2)cc1OC (stereo not drawn) [AS171] |  |  | 43 ± 26 µM | 45 ± 8 µM | 
O=C(O)CN1C(=O)/C(=C2\SC(=S)N(C(Cc3ccccc3)C(=O)O)C2=O)c2ccccc21 (stereo not drawn) [GLD31] |  |  |  |  | IC50 ([1]; Table 53, structurally diverse compounds, read-out: IN inhibition activity Strand transfer): 66 ± 17 µM; IC50 ([2]; Table 53, structurally diverse compounds, read-out: IN inhibition activity 3′-processing): 92 ± 17 µM
O=C(CSc1nc2ccccc2n1Cc1ccccc1)N/N=C/c1cc(Br)ccc1O [Compound X244] |  |  | 51 ± 3 µM | 60 ± 11 µM | 
O=C(Nc1ccc(O)c(-c2nc3cc(Cl)ccc3o2)c1)c1cccnc1 [Compound X255] |  |  |  |  | IC50 [1, 7]: 10 µM; IC50 [2, 8]: 61 µM
Cc1ccc(S(=O)(=O)N(CC(=O)Nc2ccccc2C(=O)O)c2cccc(Cl)c2)cc1 [OT24] | 71 ± 23 µM | 98 ± 5 µM |  |  | 
CC1=NN2C(=N)/C(=C/c3ccc(-c4ccccc4Cl)o3)C(=O)N=C2S1 [RT42] | > 100 µM | > 100 µM |  |  | 
Cc1ccc(C2C(C(=O)c3ccc(Cl)cc3)=C(O)C(=O)N2CC(=O)O)cc1 (stereo not drawn) [Compound X81] |  |  | 69 ± 36 µM | 84 ± 23 µM | IC50 [1, 7]: 69 µM; IC50 [2, 8]: 84 µM
N#Cc1c(-c2ccc(Cl)cc2)cc(-c2ccccc2)nc1SCC(=O)O [GLD2A2] |  |  | 60 ± 12 µM | 98 ± 10 µM | 
N#Cc1c(-c2ccc(F)cc2)cc(C2CC2)nc1SCCN1C(=O)c2ccccc2C1=O [OT33] | 95 ± 11 µM | > 100 µM |  |  | 
O=C(CSc1nnc(-c2ccc(Cl)cc2)n1-c1ccccc1)N/N=C/c1ccccc1C(=O)O [GLD39] |  |  | > 100 µM | > 100 µM | 
CC1=C(C#N)c2nc(N)c(C#N)c(C)c2/C1=C/c1ccc(-c2ccccc2C(=O)O)o1 [AV15A54] |  |  | > 100 µM | > 100 µM | 
COc1ccc(CCNC(=O)CC(=O)N/N=C/c2ccco2)cc1OC [Example X134] |  |  |  |  | IC50 [1, 7]: 90 µM; IC50 [2, 8]: > 100 µM
COC(=O)c1ccccc1-c1ccc(/C=C(\C#N)c2nc3ccccc3[nH]2)o1 [AV15A46] |  |  | > 100 µM | > 100 µM | 
O=C(O)CSc1nc(-c2cccs2)cc(C(F)(F)F)n1 [GLD2A10] |  |  | > 100 µM | > 100 µM | 
Cc1nnc(N/N=C/c2ccc(-c3ccccc3C(=O)O)o2)n1N [AV15A37] |  |  | > 100 µM | > 100 µM | 
Oc1cccc2ccc(/C=N/N=C/c3ccc4cccc(O)c4n3)nc12 [RT3] | 69 µM | 45 µM |  |  | 
O=C(O)c1cc(-c2ccc(/C=N/Nc3nc4nonc4nc3Nc3ccccc3F)o2)ccc1Cl [AV15A14] |  |  | 13 ± 5 µM | 16 ± 8 µM | 
COc1cc(/C=C2/SC(=S)N(CC(=O)O)C2=O)ccc1OCc1ccccc1 [OT3] | 92 ± 7 µM | > 100 µM |  |  | 
O=C(CN1C(=O)C(=Cc2ccccc2Cl)SC1=S)Nc1ccc([N+](=O)[O-])cc1O [Compound X193] | > 100 µM | > 100 µM |  |  | 
O=C(CCN1C(=O)C(=Cc2cccs2)SC1=S)Nc1ccc(O)c(C(=O)O)c1 [Compound X172] | 38 ± 16 µM | 38 ± 16 µM |  |  | 
COc1ccccc1C(=O)Nc1ccc(O)c(-c2nc3cc(C)ccc3o2)c1 [XR22] |  |  |  |  | IC50 [1, 7]: < 100 µM; IC50 [2, 8]: < 100 µM
O=C(CSc1nnc(-c2ccc(Cl)cc2)n1-c1ccccc1)N/N=C/c1cccc(Oc2ccccc2)c1 [LX7] |  |  | > 100 µM | > 100 µM | 
CCn1cc(C(=O)O)c(=O)c2cc(F)c(N3CCN(C(=S)NC(=O)C45CC6CC(CC(C6)C4)C5)CC3)cc21 [ROM3A8] | 74 µM | 78 µM |  |  | 
O=C(O)c1cccc(-c2ccc(/C=C3\Sc4ccccc4C3=O)o2)c1 [AV15A6] |  |  | 24 µM | 76 µM | 

Structure (SMILES) | IC50 [1, 3] | IC50 [2, 4] | IC50 [1, 5] | IC50 [2, 6] | also measured
Cc1ccc(C(=O)C2=C(O)C(=O)N(c3ncc(S(=O)(=O)c4ccc([N+](=O)[O-])cc4)s3)C2c2cccc(Cl)c2)cc1 (stereo not drawn) [AS139 BAS 02234865] |  |  | 8 ± 2 µM | 27 ± 10 µM | 
CCn1c(=O)c(C(=O)Nc2ccccc2C(=O)OC)c(O)c2ccccc21 [XR15] | 9.5 µM |  |  |  | 
COc1cc(-c2nc3ccccn3c2/N=C/c2ccc(-c3ccc(Cl)c(C(=O)O)c3)o2)ccc1O [AV15A25] |  |  | > 100 µM | > 100 µM | 
CCOC(=O)c1sc(N2C(=O)C(O)=C(C(=O)c3ccc(C)cc3)C2c2ccc(F)cc2)nc1C (stereo not drawn) [Compound M28A18] |  |  | 33 ± 25 µM | > 100 µM | 
COc1ccc(-n2c(Cc3ccccc3)nnc2SCC(=O)NNC(=O)c2ccccc2O)cc1 [AS9A2] |  |  | 17 ± 1 µM | 18 ± 1 µM | 
NC(=S)N1CCN(c2c(F)c(N)c3c(=O)c(C(=O)O)cn(C4CC4)c3c2F)CC1 [ROM3A5] | > 100 µM | > 100 µM |  |  | 
CCn1c(=O)c(C(=O)Nc2cc(Cl)ccc2OC)c(O)c2ccccc21 [XR5] | 19 µM | 74 µM |  |  | 
O=C(CSc1nnc(Cc2ccccc2)n1C1CCCCC1)NNC(=O)c1ccccc1O [AS9A4] |  |  | 17 ± 1 µM | 21 ± 2 µM | 
COc1cc(/C=N/Nc2nc3nonc3nc2Nc2ccccc2F)ccc1O [AV15A18] |  |  | 17 ± 5 µM | 30 ± 12 µM | 
COc1ccc(C(=O)Nc2ccc(O)c(-c3nc4ccccc4o3)c2)cc1[N+](=O)[O-] [XR17] |  |  |  |  | IC50 [1, 7]: 7 µM; IC50 [2, 8]: 6 µM
O=C(Nc1ccc(O)c(-c2nc3ccccc3o2)c1)c1ccccc1F [XR19] |  |  |  |  | IC50 [1, 7]: < 100 µM; IC50 [2, 8]: < 100 µM
COC(=O)c1ccc(C(=O)OC)c(NC(=O)c2ccc(C)c([N+](=O)[O-])c2)c1 [Compound X19] |  | 92 µM |  |  | 
N#C/C(=C\c1ccc(-c2cc(Cl)ccc2C(=O)O)o1)c1nc2ccccc2[nH]1 [AV15A52] |  |  | 51 µM |  | 
Nc1nonc1-c1nc2ccccc2n1CC(=O)N/N=C/c1ccc(-c2cccc(C(=O)O)c2)o1 [NST20] | 68 µM |  |  |  | 
C=CCn1c(=O)c(C(=O)Nc2ccccc2OC)c(O)c2ccccc21 [XR3] | 25 µM |  |  |  | 
O=C(O)c1cccc(-c2ccc(/C=N/Nc3nc(Nc4ccccc4)nc(Nc4ccccc4)n3)o2)c1 [AV15A42] |  |  |  | 89 ± 19 µM | 
COC(=O)C1=C(C(=O)OC)SC(=C2C(=S)C(C)(C)N(C(=O)c3cccnc3)c3ccc(C)cc32)S1 [RT25] |  | > 100 µM |  |  | 
COc1ccccc1C=C1SC(=S)N(CCC(=O)Nc2ccc(O)cc2)C1=O [Compound X118] |  | 99 ± 3 µM |  |  | 
O=C1C(=Cc2c(NCCO)nc3ccccn3c2=O)SC(=S)N1Cc1ccco1 [Compound X281] |  | > 100 µM |  |  | 
Cc1nc(=O)c(-c2ccccc2)c(C)n1-c1ccc(C(=O)O)c(O)c1 [Compound X181] | 73 ± 24 µM |  |  |  | 
O=C(Nc1nncs1)c1c(O)c2ccccc2n(Cc2ccccc2)c1=O [LM33] | 36 µM |  |  |  | 
CCOC(=O)CCc1cc(C(=O)OCC)c(CCC(=O)OCC)cc1C(=O)OCC [Compound X35] | 94 µM |  |  |  | 
O=C(NN1C(=O)/C(=C/c2ccc(Br)cc2)SC1=S)c1ccccc1O [Compound X220] | 27 ± 6 µM |  |  |  | 
Cc1cccc(Nc2nc3nonc3nc2N/N=C/c2ccc(-c3ccccc3Cl)o2)c1C [AV15A33] |  |  |  | > 100 µM | 
O=C(N/N=C/c1ccc(-c2ccc(Cl)cc2)o1)c1ccccc1 [AV15A29] |  |  |  | > 100 µM | 
Cc1ccc(C=C2SC(=S)N(CCC(=O)Nc3cccc(C(=O)O)c3)C2=O)cc1 [Compound X100] | > 100 µM |  |  |  | 
O=C(CCCN1C(=O)/C(=C/c2cccs2)SC1=S)Nc1nc2ccccc2s1 [Compound X178] |  | 98 ± 5 µM |  |  | 

From patent US8183236B2, “Compounds with HIV-1 integrase inhibitory activity and use thereof as anti-HIV/AIDS therapeutics” (University of Southern California, priority 2007, dated 2012)
